Legend:
[1] = molecular target: Protein-tyrosine kinase 6 (Homo sapiens) (UniProt Q13882); settings: Compound concentration 1000.0 nM
[2] = molecular target: Serine/threonine-protein kinase Nek2 (Homo sapiens) (UniProt P51955); settings: Compound concentration 1000.0 nM
[3] = molecular target: D(1B) dopamine receptor (Homo sapiens) (UniProt P21918); settings: Compound concentration 10.0 uM
[4] = molecular target: Tyrosine-protein kinase receptor TYRO3 (Homo sapiens) (UniProt Q06418); settings: Compound concentration 1000.0 nM
[5] = tested on: Epidermal growth factor receptor (Homo sapiens), P00533 [G719S]; settings: Compound concentration 1000.0 nM
[6] = molecular target: Calcium/calmodulin-dependent protein kinase type II subunit delta (Homo sapiens) (UniProt Q13557); settings: Compound concentration 1000.0 nM
[7] = molecular target: TRAF2 and NCK-interacting protein kinase (Homo sapiens) (UniProt Q9UKE5); settings: Compound concentration 1000.0 nM
[8] = molecular target: Serine/threonine-protein kinase Chk1 (Homo sapiens) (UniProt O14757); settings: Compound concentration 1000.0 nM
[9] = molecular target: Interleukin-1 receptor-associated kinase 3 (Homo sapiens) (UniProt Q9Y616); settings: Compound concentration 1000.0 nM
[10] = molecular target: Muscarinic acetylcholine receptor M5 (Homo sapiens) (UniProt P08912); settings: Compound concentration 10.0 uM
[11] = molecular target: SRSF protein kinase 2 (Homo sapiens) (UniProt P78362); settings: Compound concentration 1000.0 nM
[12] = molecular target: 5-hydroxytryptamine receptor 5A (Homo sapiens) (UniProt P47898); settings: Compound concentration 10.0 uM
[13] = molecular target: Rho-associated protein kinase 1 (Homo sapiens) (UniProt Q13464); settings: Compound concentration 1000.0 nM
[14] = tested on: Phosphatidylinositol 4,5-bisphosphate 3-kinase catalytic subunit alpha isoform (Homo sapiens), P42336 [H1047L]; settings: Compound concentration 1000.0 nM
[15] = molecular target: Serine/threonine-protein kinase ULK2 (Homo sapiens) (UniProt Q8IYT8); settings: Compound concentration 1000.0 nM
[16] = molecular target: Bone morphogenetic protein receptor type-1B (Homo sapiens) (UniProt O00238); settings: Compound concentration 1000.0 nM
[17] = molecular target: Serine/threonine-protein kinase LATS1 (Homo sapiens) (UniProt O95835); settings: Compound concentration 1000.0 nM
[18] = molecular target: Transient receptor potential cation channel subfamily M member 6 (Homo sapiens) (UniProt Q9BX84); settings: Compound concentration 1000.0 nM
[19] = molecular target: Cytoplasmic tyrosine-protein kinase BMX (Homo sapiens) (UniProt P51813); settings: Compound concentration 1000.0 nM
[20] = molecular target: Tyrosine-protein kinase Lck (Homo sapiens) (UniProt P06239); settings: Compound concentration 1000.0 nM
[21] = molecular target: D(1A) dopamine receptor (Homo sapiens) (UniProt P21728); settings: Compound concentration 10.0 uM
[22] = molecular target: Serine/threonine-protein kinase Nek6 (Homo sapiens) (UniProt Q9HC98); settings: Compound concentration 1000.0 nM
[23] = molecular target: Calcium/calmodulin-dependent protein kinase type II subunit alpha (Homo sapiens) (UniProt Q9UQM7); settings: Compound concentration 1000.0 nM
[24] = molecular target: Membrane-associated tyrosine- and threonine-specific cdc2-inhibitory kinase (Homo sapiens) (UniProt Q99640); settings: Compound concentration 1000.0 nM
[25] = molecular target: RAC-alpha serine/threonine-protein kinase (Homo sapiens) (UniProt P31749); settings: Compound concentration 1000.0 nM
[26] = molecular target: Ephrin type-A receptor 2 (Homo sapiens) (UniProt P29317); settings: Compound concentration 1000.0 nM
[27] = molecular target: Rho-associated protein kinase 2 (Homo sapiens) (UniProt O75116); settings: Compound concentration 1000.0 nM
[28] = molecular target: Serine/threonine-protein kinase 38 (Homo sapiens) (UniProt Q15208); settings: Compound concentration 1000.0 nM
[29] = molecular target: Mitogen-activated protein kinase kinase kinase 7 (Homo sapiens) (UniProt O43318); settings: Compound concentration 1000.0 nM
[30] = molecular target: Activin receptor type-2B (Homo sapiens) (UniProt Q13705); settings: Compound concentration 1000.0 nM
[31] = molecular target: Serine/threonine-protein kinase 25 (Homo sapiens) (UniProt O00506); settings: Compound concentration 1000.0 nM
[32] = tested on: Epidermal growth factor receptor (Homo sapiens), P00533 [UNDEFINED MUTATION]; settings: Compound concentration 1000.0 nM
[33] = molecular target: Phosphorylase b kinase regulatory subunit alpha, liver isoform (Homo sapiens) (UniProt P46019); settings: Compound concentration 1000.0 nM
[34] = molecular target: Serine/threonine-protein kinase RIO2 (Homo sapiens) (UniProt Q9BVS4); settings: Compound concentration 1000.0 nM
[35] = molecular target: cGMP-dependent protein kinase 1 (Homo sapiens) (UniProt Q13976); settings: Compound concentration 1000.0 nM
[36] = molecular target: Proto-oncogene tyrosine-protein kinase ROS (Homo sapiens) (UniProt P08922); settings: Compound concentration 1000.0 nM
[37] = molecular target: Serine/threonine-protein kinase WNK1 (Homo sapiens) (UniProt Q9H4A3); settings: Compound concentration 1000.0 nM
[38] = molecular target: Dual specificity mitogen-activated protein kinase kinase 4 (Homo sapiens) (UniProt P45985); settings: Compound concentration 1000.0 nM
[39] = molecular target: Death-associated protein kinase 2 (Homo sapiens) (UniProt Q9UIK4); settings: Compound concentration 1000.0 nM
[40] = molecular target: Serine/threonine-protein kinase BRSK1 (Homo sapiens) (UniProt Q8TDC3); settings: Compound concentration 1000.0 nM
[41] = molecular target: Cyclin-dependent kinase-like 5 (Homo sapiens) (UniProt O76039); settings: Compound concentration 1000.0 nM
[42] = molecular target: Mitogen-activated protein kinase kinase kinase 3 (Homo sapiens) (UniProt Q99759); settings: Compound concentration 1000.0 nM
[43] = molecular target: Fibroblast growth factor receptor 3 (Homo sapiens) (UniProt P22607); settings: Compound concentration 1000.0 nM
[44] = molecular target: G protein-coupled receptor kinase 4 (Homo sapiens) (UniProt P32298); settings: Compound concentration 1000.0 nM
[45] = molecular target: Proto-oncogene tyrosine-protein kinase Src (Homo sapiens) (UniProt P12931); settings: Compound concentration 1000.0 nM

Chain of Phosphatidylinositol 4,5-bisphosphate 3-kinase catalytic subunit alpha isoform (Homo sapiens), P42336 [H1047L] (P42336 whole entry H1047L, canonical isoform): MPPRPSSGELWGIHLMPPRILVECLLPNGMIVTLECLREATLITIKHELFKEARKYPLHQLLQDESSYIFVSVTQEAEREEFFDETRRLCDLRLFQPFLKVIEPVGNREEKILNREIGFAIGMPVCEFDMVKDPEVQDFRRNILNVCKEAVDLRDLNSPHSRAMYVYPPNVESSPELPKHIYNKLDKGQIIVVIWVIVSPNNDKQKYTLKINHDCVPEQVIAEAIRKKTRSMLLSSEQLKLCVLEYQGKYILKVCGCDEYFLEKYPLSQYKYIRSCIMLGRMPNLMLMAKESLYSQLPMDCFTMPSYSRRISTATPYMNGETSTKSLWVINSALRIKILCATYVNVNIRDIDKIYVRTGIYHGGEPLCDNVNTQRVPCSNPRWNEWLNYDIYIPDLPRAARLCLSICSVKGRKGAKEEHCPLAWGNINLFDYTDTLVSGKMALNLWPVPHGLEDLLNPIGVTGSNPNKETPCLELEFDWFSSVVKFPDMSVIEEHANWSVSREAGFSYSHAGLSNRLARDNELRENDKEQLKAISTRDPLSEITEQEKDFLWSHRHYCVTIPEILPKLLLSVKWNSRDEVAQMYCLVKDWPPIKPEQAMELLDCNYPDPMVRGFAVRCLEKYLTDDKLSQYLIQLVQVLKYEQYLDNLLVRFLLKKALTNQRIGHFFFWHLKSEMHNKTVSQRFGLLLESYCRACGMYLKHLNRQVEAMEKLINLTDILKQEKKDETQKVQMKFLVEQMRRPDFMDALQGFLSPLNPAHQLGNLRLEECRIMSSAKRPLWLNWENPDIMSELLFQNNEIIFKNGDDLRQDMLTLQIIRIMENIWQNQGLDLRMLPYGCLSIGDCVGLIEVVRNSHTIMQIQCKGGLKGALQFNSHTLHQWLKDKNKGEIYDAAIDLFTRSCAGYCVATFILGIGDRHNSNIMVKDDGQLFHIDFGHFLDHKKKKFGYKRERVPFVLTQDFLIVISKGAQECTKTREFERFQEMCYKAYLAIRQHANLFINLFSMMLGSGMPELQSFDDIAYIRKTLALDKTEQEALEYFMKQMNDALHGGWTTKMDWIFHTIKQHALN
Chain of Death-associated protein kinase 2 (Homo sapiens) (Q9UIK4 whole entry, looked up): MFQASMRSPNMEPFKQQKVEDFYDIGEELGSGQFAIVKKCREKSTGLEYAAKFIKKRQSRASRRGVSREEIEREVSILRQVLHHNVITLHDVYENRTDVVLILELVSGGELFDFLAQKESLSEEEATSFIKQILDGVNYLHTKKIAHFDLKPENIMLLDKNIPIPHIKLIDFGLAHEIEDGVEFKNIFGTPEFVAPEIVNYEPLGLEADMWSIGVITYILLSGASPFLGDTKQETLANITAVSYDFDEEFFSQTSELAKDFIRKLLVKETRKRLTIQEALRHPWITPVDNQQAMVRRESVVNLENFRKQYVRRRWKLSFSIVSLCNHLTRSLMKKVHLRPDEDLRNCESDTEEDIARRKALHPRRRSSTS
Chain of Tyrosine-protein kinase receptor TYRO3 (Homo sapiens) (Q06418 whole entry): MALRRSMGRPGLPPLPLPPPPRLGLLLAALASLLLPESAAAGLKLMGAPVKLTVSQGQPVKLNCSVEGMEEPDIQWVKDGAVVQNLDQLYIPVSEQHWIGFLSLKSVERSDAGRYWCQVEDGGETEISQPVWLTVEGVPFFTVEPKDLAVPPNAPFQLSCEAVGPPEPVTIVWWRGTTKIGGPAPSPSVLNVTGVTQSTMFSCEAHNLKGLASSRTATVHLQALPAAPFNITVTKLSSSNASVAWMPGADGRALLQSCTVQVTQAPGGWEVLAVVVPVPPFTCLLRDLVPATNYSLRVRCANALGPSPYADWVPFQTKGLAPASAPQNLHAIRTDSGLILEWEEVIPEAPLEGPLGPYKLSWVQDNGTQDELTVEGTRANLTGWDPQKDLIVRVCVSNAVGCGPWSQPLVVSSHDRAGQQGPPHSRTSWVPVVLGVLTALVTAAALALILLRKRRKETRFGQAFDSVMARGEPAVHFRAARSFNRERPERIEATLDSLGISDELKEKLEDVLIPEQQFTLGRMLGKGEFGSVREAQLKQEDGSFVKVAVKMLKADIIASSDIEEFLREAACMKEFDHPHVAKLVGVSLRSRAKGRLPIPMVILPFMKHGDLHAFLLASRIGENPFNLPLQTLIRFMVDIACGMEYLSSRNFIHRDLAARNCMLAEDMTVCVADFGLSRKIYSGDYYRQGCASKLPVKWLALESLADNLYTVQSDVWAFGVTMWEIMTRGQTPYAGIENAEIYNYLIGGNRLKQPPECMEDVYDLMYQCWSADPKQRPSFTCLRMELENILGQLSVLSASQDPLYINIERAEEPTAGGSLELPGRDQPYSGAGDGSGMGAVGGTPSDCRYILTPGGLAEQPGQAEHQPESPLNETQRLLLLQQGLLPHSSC
Chain of Rho-associated protein kinase 1 (Homo sapiens) (Q13464 2-1354 limits assumed): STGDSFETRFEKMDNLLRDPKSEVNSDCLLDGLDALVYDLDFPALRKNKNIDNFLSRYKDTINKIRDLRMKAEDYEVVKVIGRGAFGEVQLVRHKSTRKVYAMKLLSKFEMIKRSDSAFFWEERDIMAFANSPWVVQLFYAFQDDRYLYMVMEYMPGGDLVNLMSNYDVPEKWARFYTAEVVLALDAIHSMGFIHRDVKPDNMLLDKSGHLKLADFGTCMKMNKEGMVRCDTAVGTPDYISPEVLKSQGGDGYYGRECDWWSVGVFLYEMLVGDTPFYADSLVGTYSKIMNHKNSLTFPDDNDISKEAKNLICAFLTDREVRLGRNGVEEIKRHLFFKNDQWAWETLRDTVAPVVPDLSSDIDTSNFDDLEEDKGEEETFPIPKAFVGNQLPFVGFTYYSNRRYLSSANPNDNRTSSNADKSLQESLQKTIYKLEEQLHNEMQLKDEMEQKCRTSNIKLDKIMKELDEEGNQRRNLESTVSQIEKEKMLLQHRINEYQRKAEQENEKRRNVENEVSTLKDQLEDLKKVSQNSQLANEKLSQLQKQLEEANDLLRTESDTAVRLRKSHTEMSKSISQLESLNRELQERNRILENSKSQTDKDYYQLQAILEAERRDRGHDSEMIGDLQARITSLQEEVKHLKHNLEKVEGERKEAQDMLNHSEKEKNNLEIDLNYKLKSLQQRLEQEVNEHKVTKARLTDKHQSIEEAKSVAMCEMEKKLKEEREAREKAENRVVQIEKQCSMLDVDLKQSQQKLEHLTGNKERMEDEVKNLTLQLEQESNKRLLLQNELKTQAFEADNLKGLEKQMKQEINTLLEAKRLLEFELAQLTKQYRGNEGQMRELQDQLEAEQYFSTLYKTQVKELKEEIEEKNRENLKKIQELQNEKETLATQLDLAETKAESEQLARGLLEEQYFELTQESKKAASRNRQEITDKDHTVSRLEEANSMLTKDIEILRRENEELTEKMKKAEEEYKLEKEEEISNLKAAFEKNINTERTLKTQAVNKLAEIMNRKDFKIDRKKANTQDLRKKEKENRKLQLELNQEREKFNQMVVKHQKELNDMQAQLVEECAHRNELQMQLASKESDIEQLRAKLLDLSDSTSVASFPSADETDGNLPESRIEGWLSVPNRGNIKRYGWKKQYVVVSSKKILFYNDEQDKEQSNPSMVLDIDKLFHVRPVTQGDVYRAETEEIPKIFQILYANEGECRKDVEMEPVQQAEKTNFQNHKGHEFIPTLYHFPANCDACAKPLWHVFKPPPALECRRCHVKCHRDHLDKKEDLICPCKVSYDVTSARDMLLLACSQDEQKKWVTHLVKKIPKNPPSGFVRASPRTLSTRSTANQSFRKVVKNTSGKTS
Chain of Tyrosine-protein kinase Lck (Homo sapiens) (P06239 2-509 limits assumed): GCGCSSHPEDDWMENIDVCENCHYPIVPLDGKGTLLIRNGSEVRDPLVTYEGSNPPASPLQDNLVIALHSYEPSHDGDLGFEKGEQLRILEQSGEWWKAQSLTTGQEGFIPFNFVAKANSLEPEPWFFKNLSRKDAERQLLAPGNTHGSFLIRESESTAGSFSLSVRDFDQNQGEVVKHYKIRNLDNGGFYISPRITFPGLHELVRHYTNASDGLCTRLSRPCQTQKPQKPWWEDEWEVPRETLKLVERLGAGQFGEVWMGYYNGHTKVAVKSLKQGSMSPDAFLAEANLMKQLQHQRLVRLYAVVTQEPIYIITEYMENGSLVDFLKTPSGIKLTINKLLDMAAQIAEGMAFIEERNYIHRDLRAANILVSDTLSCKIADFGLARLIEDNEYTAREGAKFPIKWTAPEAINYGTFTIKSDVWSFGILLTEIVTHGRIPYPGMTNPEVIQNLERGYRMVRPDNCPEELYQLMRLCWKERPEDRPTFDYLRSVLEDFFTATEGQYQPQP
Chain of Serine/threonine-protein kinase Chk1 (Homo sapiens) (O14757 whole entry): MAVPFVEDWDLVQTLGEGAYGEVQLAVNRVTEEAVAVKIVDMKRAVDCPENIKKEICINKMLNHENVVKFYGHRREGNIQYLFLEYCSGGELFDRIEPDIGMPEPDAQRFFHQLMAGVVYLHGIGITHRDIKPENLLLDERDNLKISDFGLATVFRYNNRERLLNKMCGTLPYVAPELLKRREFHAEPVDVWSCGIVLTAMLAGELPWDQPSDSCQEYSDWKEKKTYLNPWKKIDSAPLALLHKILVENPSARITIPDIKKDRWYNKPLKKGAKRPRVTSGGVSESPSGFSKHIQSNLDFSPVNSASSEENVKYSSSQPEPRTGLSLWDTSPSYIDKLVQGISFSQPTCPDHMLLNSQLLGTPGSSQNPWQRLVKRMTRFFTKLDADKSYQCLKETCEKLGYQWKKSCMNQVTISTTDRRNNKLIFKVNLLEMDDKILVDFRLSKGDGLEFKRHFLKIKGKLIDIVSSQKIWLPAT
Chain of 5-hydroxytryptamine receptor 5A (Homo sapiens) (P47898 whole entry): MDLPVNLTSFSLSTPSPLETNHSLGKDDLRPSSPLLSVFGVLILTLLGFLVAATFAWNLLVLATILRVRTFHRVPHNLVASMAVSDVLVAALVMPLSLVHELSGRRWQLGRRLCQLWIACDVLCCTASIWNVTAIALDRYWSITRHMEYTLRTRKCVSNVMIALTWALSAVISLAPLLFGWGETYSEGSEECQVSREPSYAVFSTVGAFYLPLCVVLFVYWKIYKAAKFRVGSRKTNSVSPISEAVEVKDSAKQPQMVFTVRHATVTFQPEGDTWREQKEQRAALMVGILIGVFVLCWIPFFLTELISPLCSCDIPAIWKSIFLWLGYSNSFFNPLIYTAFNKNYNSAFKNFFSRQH

In the case of `CN([C@@H]1CCc2c(CC(=O)O)c3ccccc3n2C1)S(=O)(=O)c1ccc(F)cc1` [MK-7246], the residual activity [1] is reported as 100%, the residual activity [2] is reported as 100% and the inhibition [3] is reported as 1.94%. The residual activity [4] was 72%, the residual activity [5] was 100% and the residual activity [6] was 100%. For the same molecule, the residual activity [7] was 79%, the residual activity [8] was 100% and the residual activity [9] was 100%. For the same molecule, the inhibition [10] was 6.97%, the residual activity [11] was 100% and the inhibition [12] was -1.36%. It also gave a residual activity [13] of 34%, a residual activity [14] of 100% and a residual activity [15] of 100%. The residual activity [16] was 100%, the residual activity [17] was 69% and the residual activity [18] was 85%. It also gave a residual activity [19] of 100%, a residual activity [20] of 100% and an inhibition [21] of 12.3%. The residual activity [22] was 99%, the residual activity [23] was 91% and the residual activity [24] was 100%. The residual activity [25] was 100%, the residual activity [26] was 100% and the residual activity [27] was 100%. For the same molecule, the residual activity [28] was 100%, the residual activity [29] was 100% and the residual activity [30] was 98%. For the same molecule, the residual activity [31] was 99%, the residual activity [32] was 100% and the residual activity [33] was 100%. The residual activity [34] was 90%, the residual activity [35] was 100% and the residual activity [36] was 100%. The residual activity [37] was 96%, the residual activity [38] was 100% and the residual activity [39] was 100%. For the same molecule, the residual activity [40] was 100%, the residual activity [41] was 74% and the residual activity [42] was 100%. For the same molecule, the residual activity [43] was 100%, the residual activity [44] was 100% and the residual activity [45] was 100%.

`CN([C@@H]1CCc2c(CC(=O)O)c3cc(S(C)(=O)=O)ccc3n2C1)S(=O)(=O)c1ccc(F)cc1` was tested, and the residual activity [1] was 92%, the residual activity [2] was 100% and the inhibition [3] was -6.04%. The residual activity [4] was 91%, the residual activity [5] was 100% and the residual activity [6] was 100%. It also gave a residual activity [7] of 100%, a residual activity [8] of 100% and a residual activity [9] of 100%. It also gave an inhibition [10] of -6.18%, a residual activity [11] of 100% and an inhibition [12] of -1.56%. It also gave a residual activity [13] of 6%, a residual activity [14] of 96% and a residual activity [15] of 100%. It also gave a residual activity [16] of 100%, a residual activity [17] of 61% and a residual activity [18] of 74%. The residual activity [19] was 100%, the residual activity [20] was 100% and the inhibition [21] was -2.96%. It also gave a residual activity [22] of 84%, a residual activity [23] of 100% and a residual activity [24] of 100%. The residual activity [25] was 100%, the residual activity [26] was 100% and the residual activity [27] was 100%. The residual activity [28] was 85%, the residual activity [29] was 100% and the residual activity [30] was 100%. It also gave a residual activity [31] of 100%, a residual activity [32] of 100% and a residual activity [33] of 100%. It also gave a residual activity [34] of 96%, a residual activity [35] of 95% and a residual activity [36] of 87%. The residual activity [37] was 95%, the residual activity [38] was 75% and the residual activity [39] was 100%. The residual activity [40] was 94%, the residual activity [41] was 93% and the residual activity [42] was 85%. The residual activity [43] was 100%, the residual activity [44] was 100% and the residual activity [45] was 96%.

— ChEMBL document CHEMBL4507290 (2021)
